Source: patent US20200292529A1, “NEW DRUG SCREENING ASSAY USING REGULATORY MACROPHAGES” (Universität Regensburg, priority 2017, published 2020)
“Also recorded” adds a separate entry of the source.

Legend:
Foxp3+CD25+ iTreg cells [1] = test: Mreg co-culture with naïve CD4+ T cells in lidded FACS tubes, iTreg analysis by flow cytometry; type: cell-based, human; conditions: tacrolimus 1 nM to 10 μM during co-culture; n=3 donors; FIG. 1
Protocol: (§1) A preparation of human Mregs (“Mreg B”) was prepared in 75 cm^2 flasks according to a modified protocol of Hutchinson. Peripheral blood mononuclear cells (PBMC) were obtained from a healthy donor for use as starting material for Mreg generation. The donor was screened for relevant disease markers, including infectious diseases, not more than 30 days prior to collection of PBMC. The donor was re-screened for the same disease markers on the day of leucocyte donation. PBMC were obtained by leukapheresis using the Spectra Optia® device. Human Mregs can also be generated from leukapheresates collected with alternative devices or from whole blood samples. PBMC from leukapheresis products were further purified by Ficoll-gradient centrifugation. CD14^+ monocytes were isolated from Ficoll-separated, washed PBMC by positive magnetic bead selection using research-grade CD14 microbeads (Miltenyi Biotec, GmbH) in accordance with the manufacturer's instructions. The preparation of isolated monocytes was quality-controlled for viability and purity of CD14^+ cells and contamination with CD3^+ T cells by flow cytometry. Isolated monocytes were resuspended in Mreg culture medium at a density of 7.5×10^5 viable monocytes/ml then plated in Cell+T75 flasks (Sarstedt) at 2×10^5 viable monocytes/cm^2 in a total volume of 20 ml medium. […]

Foxp3+CD25+ iTreg cells [2] = test: Mreg-induced iTreg assay: Mreg co-culture with allogeneic CD3+ T cells in 96 well plates; type: cell-based; conditions: recombinant human IFN-γ 0-100 ng/ml during co-culture; n=8 donors; p<0.0001; FIG. 6
Protocol: as §1

C=CC[C@@H]1/C=C(\C)C[C@H](C)C[C@H](OC)[C@H]2O[C@@](O)(C(=O)C(=O)N3CCCC[C@H]3C(=O)O[C@H](/C(C)=C/[C@@H]3CC[C@@H](O)[C@H](OC)C3)[C@H](C)[C@@H](O)CC1=O)[C@H](C)C[C@@H]2OC [tacrolimus]
Mreg-mediated iTreg generation (Foxp3+CD25+ iTreg cells) (Foxp3+CD25+ iTreg cells [1]): inhibited the formation of Foxp3+CD25+ iTreg cells in a dose-dependent manner; also recorded: potently suppressed iTreg generation in a dose-dependent manner

B1: IFN-γ: recombinant human interferon gamma added to Mreg-T cell co-cultures (protein, UniProt P01579 24-161, looked up)
Interferon gamma: QDPYVKEAENLKKYFNAGHSDVADNGTLFLGILKNWKEESDRKIMQSQIVSFYFKLFKNFKDDQSIQKSVETIKEDMNVKFFNSNKKKRDDFEKLTNYSVTDLNVQRKAIHELIQVMAELSPAAKTGKRKRSQMLFRG
iTreg generation versus IFN-γ concentration in the co-culture phase (linear regression) (Foxp3+CD25+ iTreg cells [2]): significant dose-dependent relationship
